Assay results reported in US20150361400A1, “COMPOSITIONS AND METHODS FOR MAINTAINING AND IMPROVING PANCREATIC ISLET CELL FUNCTION AND STABILITY” (WAKE FOREST UNIVERSITY HEALTH SCIENCES, priority 2013, published 2015).

Key:
[1] = test system: isolated cultured human islets; test: RNA-Seq gene expression in isolated cultured human islets with or without Raloxifene; assay type: cell-based; conditions: for % decrease in gene expression: 10 nM Raloxifene vs control
Method: FIG. 1: Inhibition of estrogen receptor signaling prevents dedifferentiation in cultured islets. Islets were either untreated or treated with an estrogen receptor selective estrogen receptor modulator (SERM; 10 nM Raloxifene). RNA-Seq analysis of cultured islets was performed following 4 days in culture. Raloxifene treatment was for one day on the final day of culture. Expression levels of individual genes were calculated by the method of RPKM (reads per kilobase per million mapped reads). Data is represented as the log of the ratio (Islets-Raloxifene: Islets-no treatment) where positive values indicate an increase in gene expression with Raloxifene treatment. […] (IL-8, CXXL6, SERPINB2, OLFM4).
Following isolation, the islet cell clusters are cultured in Connaught Medical Research Laboratory 1066 medium supplemented with 10 nM Raloxifene. These are the conditions described in the legend to FIG. 1.
An inflammatory gene expression profile is evoked following human islet isolation and culture and suppressed by Raloxifene treatment. Gene expression was assessed in isolated cultured human islets on multiple days following the isolation procedure. Islets were cultured in standard CMRL media with or without the addition of Raloxifene and gene expression profiles were assessed by RNA-Seq. In table 2A, the progressive increase of NFkB-target gene expression is observed over consecutive days in culture. Of note, significant increases in canonical NFkB targets (CCL2, CCL20, IL1B) as well as NFkB coordinately regulated gene clusters, such as the innate immunity gene cluster (APOL1-APOL6) were observed. In table 2B, Raloxifene treatment (10 nM) suppressed gene expression of the innate immunity gene cluster (APOL1-APOL6) which is typically observed to increase with the isolation and culture of human islets. Gene expression was assessed with RNA-Seq and quantification of gene transcripts is represented as RPKM ([…]). Note, three genes (APOL1, APOL2, and APOL6) in the innate immunity gene cluster were each reduced by Raloxifene treatment.

autoimmune diabetes = conditions: treatment of recipient NOD.scid mice before transfer of BDC-2.5 clone; cited from earlier work

| Structure (SMILES) | endocrine phenotype of isolated islet cultures [1] | gene expression of the innate immunity gene cluster (APOL1-APOL6) ([1]; 10 nM Raloxifene) | % decrease in gene expression ([1]; APOL1 gene) [%] | RPKM (Ral) ([1]; APOL1 gene, 10 nM Raloxifene, control 2.1) [RPKM] | % decrease in gene expression ([1]; APOL2 gene) [%] | RPKM (Ral) ([1]; APOL2 gene, 10 nM Raloxifene, control 13.6) [RPKM] | % decrease in gene expression ([1]; APOL6 gene) [%] | RPKM (Ral) ([1]; APOL6 gene, 10 nM Raloxifene, control 1.5) [RPKM] | expression of housekeeping genes ([1]; GAPDH, ACTB, B2M, 10 nM, one day on final day of 4 days culture) | increase in expression of inflammatory genes and genes associated with a dedifferentiation profile ([1]; IL-8, CXXL6, SERPINB2, OLFM4, 10 nM, one day on final day of 4 days culture) | expression of genes associated with a differentiated phenotype ([1]; SYT8, INS, 10 nM, one day on final day of 4 days culture) | onset of diabetes (disease) (autoimmune diabetes) |
| --- | --- | --- | --- | --- | --- | --- | --- | --- | --- | --- | --- | --- |
| O=C(c1ccc(OCCN2CCCCC2)cc1)c1c(-c2ccc(O)cc2)sc2cc(O)ccc12 [Raloxifene] | preserved the endocrine phenotype | suppressed | 15 | 1.8 | 68 | 4.3 | 41 | 0.9 | without effect | prevented | increased expression |  |
| CCN1C=CC=C/C1=C1/C2=NC(=C(c3cccc[n+]3CC)C3=NC(=C(c4cccc[n+]4CC)c4ccc([n-]4)C(c4cccc[n+]4CC)=C4C=CC1=N4)C=C3)C=C2.[Cl-].[Cl-].[Cl-].[Cl-].[Cl-].[Mn+3] [AEOL-10113] |  |  |  |  |  |  |  |  |  |  |  | significantly delayed or prevented altogether |
